Values quoted from earlier work, collected in patent publication US9206171B2, “6-{2 -[1-(6-methyl-3-pyridazinyl)-4-piperidinyl]ethoxy}-3-ethoxy-1,2-benzisoxazole bis-dihydrogenphosphate salt (1:2)” (Biota Scientific Management Pty Ltd, priority 2008, dated 2015).

Columns and labels:
[1] = facile endogenous cleavage of the ester moiety, regardless of excipient
[2] = patients using oral contraceptive formulations

Row | SMILES | aqueous solubility (in words) | bioavailability (in words) [1] | interaction with oral contraceptive formulations [2]
1 | CCOC(=O)c1ccc(OCCC2CCN(c3ccc(C)nn3)CC2)cc1 [Pirodavir, 4-[2-[1-(6-methyl-3-pyridazinyl)-4-piperidinyl]-ethoxy]benzoate] | poor aqueous solubility | poor bioavailability | –
2 | Cc1cc(CCCOc2c(C)cc(-c3noc(C(F)(F)F)n3)cc2C)on1 [Pleconaril] | – | – | interact adversely
